Numbered stars: 1 amine (or outer) side, 2 acyl side, 3 side chain; on linkers, the order of the positions; unused ones are H or OH. Square brackets hold non-standard residues; d marks the D form. Peptide text beside a SMILES is read from it. X2 = O=C([C@H](Cc1c(F)cc(F)c(F)c1F)N[*:1])[*:2]; X3 = O=C([C@H](Cc1cc(F)c(F)c(F)c1F)N[*:1])[*:2]; Cha = N[C@@H](CC1CCCCC1)C(=O)O
Experiment: Activation of PAR-1 in human platelet-rich plasma assessed as induction of platelet aggregation by turbidimetric method

Compared with “H-SFLLRNP-NH2 [1-{(S)-2-[(S)-2-((S)-2-{(S)-2-[(S)-2-((S)-2-Amino-3-hydroxy-propionylamino)-3-phenyl-propionylamino]-4-methyl-pentanoylamino}-4-methyl-pentanoylamino)-5-guanidino-pentanoylamino]-3-carbamoyl-propionyl}-pyrrolidine-2-carboxylic acid amide]”, CC(C)C[C@H](NC(=O)[C@H](CC(C)C)NC(=O)[C@H](Cc1cc(F)c(F)c(F)c1F)NC(=O)[C@@H](N)CO)C(=O)N[C@@H](CCCNC(=N)N)C(=O)N[C@@H](CC(N)=O)C(=O)N1CCC[C@H]1C(N)=O (H-S[X3]LLRNP-NH2) is 17-fold higher in EC50: 3 µM for the first, 50 µM for the second. The first is the more potent here.

Compared with CC(C)C[C@H](NC(=O)[C@H](CC(C)C)NC(=O)[C@H](Cc1c(F)cc(F)c(F)c1F)NC(=O)[C@@H](N)CO)C(=O)N[C@@H](CCCNC(=N)N)C(=O)N[C@@H](CC(N)=O)C(=O)N1CCC[C@H]1C(N)=O (H-S[X2]LLRNP-NH2), CC(C)C[C@H](NC(=O)[C@H](CC(C)C)NC(=O)[C@H](CC1CCCCC1)NC(=O)[C@@H](N)CO)C(=O)N[C@@H](CCCNC(=N)N)C(=O)N[C@@H](CC(N)=O)C(=O)N1CCC[C@H]1C(N)=O (H-S[Cha]LLRNP-NH2) is 11-fold higher in EC50: 8.9 µM for the first, 99 µM for the second. The first is the more potent here.

— BindingDB's records for doi:10.1016/j.bmc.2021.116498 (Kyushu University, 2021)
